# Assay results: patent US20250388565A1, “ESTROGEN RECEPTOR ALPHA DEGRADERS AND METHODS OF USE THEREOF” (Relay Therapeutics, Inc., priority 2022, published 2025)
# Molecular target: T1, ERα protein (HiBiT-tagged) in ESR1_HiBiT KI MCF7 cells (Homo sapiens, UniProt P03372)
# T1 sequence (P03372 1-595): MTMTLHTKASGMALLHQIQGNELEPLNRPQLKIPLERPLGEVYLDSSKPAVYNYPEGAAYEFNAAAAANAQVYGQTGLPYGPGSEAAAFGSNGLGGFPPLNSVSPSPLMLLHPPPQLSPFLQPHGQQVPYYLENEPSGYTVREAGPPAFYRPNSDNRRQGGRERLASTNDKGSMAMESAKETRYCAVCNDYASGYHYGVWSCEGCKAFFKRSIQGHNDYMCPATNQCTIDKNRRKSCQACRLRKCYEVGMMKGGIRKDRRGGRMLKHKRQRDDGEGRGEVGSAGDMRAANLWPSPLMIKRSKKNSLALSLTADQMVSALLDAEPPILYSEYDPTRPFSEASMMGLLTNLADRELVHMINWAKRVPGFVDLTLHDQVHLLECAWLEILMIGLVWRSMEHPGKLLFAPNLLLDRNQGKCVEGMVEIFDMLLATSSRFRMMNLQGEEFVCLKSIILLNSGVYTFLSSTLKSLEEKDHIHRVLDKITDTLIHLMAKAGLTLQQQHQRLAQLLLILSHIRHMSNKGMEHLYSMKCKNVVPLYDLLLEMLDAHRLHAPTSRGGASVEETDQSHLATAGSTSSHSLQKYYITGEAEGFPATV
# Assay: Nano Glo HiBiT Lytic Degradation Assay
# Assay type: cell-based
# Conditions: 6 hours with compound, 14-point dose response 1:3, bell-shape curve fit, half-maximal effect of first Hill model, read-out: MCF7 ESR1 HiBiT - (DC50)
# How it was run: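 Lytic Nano-Glo HiBiT luminescence quantified ERα remaining after a 6 h, 37° C compound exposure of MCF7 cells carrying endogenous HiBiT-tagged ESR1. Dosing used 14 threefold dilutions from a 10 mM DMSO stock (0.1% DMSO final), run in duplicate. Signals were corrected for cell-free background and expressed relative to DMSO, and DC50 came from a bell-shaped curve fit (first Hill model half-maximum).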
row,SMILES,DC50 [nM]
1,"Cn1c(=O)n([C@@H]2CCC(=O)NC2=O)c2ccc(N3CCN(CC4CCN(c5ccc([C@@H]6c7ccc(O)cc7CC[C@@H]6c6ccccc6)cc5)CC4)CC3)cc21 (single isomer, unassigned) [Compound I-276]",0.5
2,O=C1CC[C@H](N2Cc3cc(N4CCN(CC5CCN(c6ccc([C@@H]7c8ccc(O)cc8CC[C@@H]7C7CCC8(CC7)CC8)cc6)CC5)CC4)ccc3C2=O)C(=O)N1 [Compound I-146],3
3,"Cc1ccc2c(c1)CC[C@H](c1ccccc1)[C@@H]2c1ccc(N2CCC(CN3CCN(c4ccc5c(c4)CN([C@H]4CCC(=O)NC4=O)C5=O)CC3)CC2)cc1 [Compound I-50, (S)-3-(5-(4-((1-(4-((1R,2S)-6-methyl-2-phenyl-1,2,3,4-tetrahydronaphthalen-1-yl)phenyl)piperidin-4-yl)methyl)piperazin-1-yl)-1-oxoisoindolin-2-yl)piperidine-2,6-dione]",≥ 10000
4,"O=C1CC[C@H](N2Cc3cc(N4CCN(CC5CCN(c6ccc([C@H]7c8ccc(O)cc8C(F)(F)C[C@H]7C7CCCC7)cc6)CC5)CC4)ccc3C2=O)C(=O)N1 [Compound I-234, (S)-3-(5-(4-((1-(4-((1S,2S)-2-cyclopentyl-4,4-difluoro-6-hydroxy-1,2,3,4-tetrahydronaphthalen-1-yl)phenyl)piperidin-4-yl)methyl)piperazin-1-yl)-1-oxoisoindolin-2-yl)piperidine-2,6-dione]",959
5,"O=C1CCC(c2ccc(N3CCN(CC4CCN(c5ccc([C@@H]6c7ccc(O)cc7CC[C@@H]6c6ccccc6)cc5)CC4)CC3)cc2)C(=O)N1 (stereo partly drawn) [Compound I-39, 3-[4-[4-[[1-[4-[(1R,2S)-6-hydroxy-2-phenyl-tetralin-1-yl]phenyl]-4-piperidyl]methyl]piperazin-1-yl]phenyl]piperidine-2,6-dione]",469
6,"Cn1nc([C@@H]2CCC(=O)NC2=O)c2ccc(N3CCN(CC4CCN(c5ccc([C@@H]6c7ccc(O)cc7CC[C@@H]6c6ccccc6)cc5)CC4)CC3)cc21 (single isomer, unassigned) [Compound I-296]",1
7,"O=C1CC[C@H](N2Cc3cc(N4CCN(CC5CCN(c6ccc([C@H]7c8ccc(O)cc8CO[C@H]7c7ccc(F)cc7)cc6)CC5)CC4)ccc3C2=O)C(=O)N1 [Compound I-346, (S)-3-(5-(4-((1-(4-((3R,4S)-3-(4-fluorophenyl)-7-hydroxyisochroman-4-yl)phenyl)piperidin-4-yl)methyl)piperazin-1-yl)-1-oxoisoindolin-2-yl)piperidine-2,6-dione]",≥ 10000
8,"O=C1CCN(c2ccc(N3CC[C@@]4(CCN(CC5CCN(c6ccc([C@@H]7c8ccc(O)cc8C(F)(F)C[C@@H]7c7ccccc7)cc6)CC5)C4)C3)cc2)C(=O)N1 (single isomer, unassigned) [Compound I-290]",0.22
9,"O=C1CC[C@H](N2Cc3cc(N4CCN(CC5CCN(c6ccc([C@@H]7c8ccc(O)cc8CO[C@@H]7C7CC7)cc6)CC5)CC4)ccc3C2=O)C(=O)N1 (single isomer, unassigned) [Compound I-242]",3300
10,"O=C1CC[C@H](N2Cc3cc(N4CCN(CC5CCN(c6ccc([C@@H]7c8ccc(O)cc8CO[C@@H]7CC7CC7)cc6)CC5)CC4)ccc3C2=O)C(=O)N1 (single isomer, unassigned) [Compound I-230]",1
11,"CC(C)C[C@@H]1OCc2cc(O)ccc2[C@@H]1c1ccc(N2CCC(CN3CCN(c4ccc5c(c4)CN([C@H]4CCC(=O)NC4=O)C5=O)CC3)CC2)cc1 (single isomer, unassigned) [Compound I-221]",≥ 10000
12,"Cc1cc(F)c([C@@H]2CC(F)(F)c3cc(O)ccc3[C@@H]2c2ccc(N3CCC(CN4CCN(c5ccc6c(c5)CN([C@H]5CCC(=O)NC5=O)C6=O)CC4)CC3)cc2)cc1F (single isomer, unassigned) [Compound I-325]",11
13,"CC(C)(O)[C@@H]1CCc2cc(O)ccc2[C@@H]1c1ccc(N2CCC(CN3CCN(c4ccc5c(c4)CN([C@H]4CCC(=O)NC4=O)C5=O)CC3)CC2)cc1 [Compound I-219, (S)-3-(5-(4-((1-(4-((1S,2R)-6-hydroxy-2-(2-hydroxypropan-2-yl)-1,2,3,4-tetrahydronaphthalen-1-yl)phenyl)piperidin-4-yl)methyl)piperazin-1-yl)-1-oxoisoindolin-2-yl)piperidine-2,6-dione]",≥ 10000
14,"Cc1cc(F)c([C@H]2CC(F)(F)c3cc(O)ccc3[C@H]2c2ccc(N3CCC(CN4CCN(c5ccc6c(c5)CN([C@H]5CCC(=O)NC5=O)C6=O)CC4)CC3)cc2)cc1F (single isomer, unassigned) [Compound I-324]",0.56
15,"O=C1CC[C@H](N2Cc3cc(N4CCN(CC5CCN(c6ccc([C@H]7c8ccc(O)cc8C(F)(F)C[C@H]7CC7CCCC7)cc6)CC5)CC4)ccc3C2=O)C(=O)N1 [Compound I-229, (3S)-3-[5-[4-[[1-[4-[(1S,2R)-2-(cyclopentylmethyl)-4,4-difluoro-6-hydroxy-tetralin-1-yl]phenyl]-4-piperidyl]methyl]piperazin-1-yl]-1-oxo-isoindolin-2-yl]piperidine-2,6-dione]",≥ 10000
16,"O=C1CC[C@H](N2Cc3cc(N4CCN(CC5CCN(c6ccc([C@@H]7c8ccc(O)cc8CO[C@@H]7c7ccccc7F)cc6)CC5)CC4)ccc3C2=O)C(=O)N1 [Compound I-347, (S)-3-(5-(4-((1-(4-((3S,4R)-3-(2-fluorophenyl)-7-hydroxyisochroman-4-yl)phenyl)piperidin-4-yl)methyl)piperazin-1-yl)-1-oxoisoindolin-2-yl)piperidine-2,6-dione]",0.18
17,"Cc1ccc([C@@H]2CC(F)(F)c3cc(O)ccc3[C@@H]2c2ccc(N3CCC(CN4CCN(c5ccc6c(c5)CN(C5CCC(=O)NC5=O)C6=O)CC4)CC3)cc2)cc1 (stereo in doubt) [Compound I-321, (R)-3-(5-(4-((1-(4-((1S,2R)-4,4-difluoro-6-hydroxy-2-(p-tolyl)-1,2,3,4-tetrahydronaphthalen-1-yl)phenyl)piperidin-4-yl)methyl)piperazin-1-yl)-1-oxoisoindolin-2-yl)piperidine-2,6-dione]",0.44
18,Cc1cc(N2CCC3(CCN(CC4CCN(c5ccc([C@@H]6c7ccc(O)cc7CC[C@@H]6c6ccccc6)cc5)CC4)C3)CC2)ccc1N1CCC(=O)NC1=O [Compound I-293],0.52
19,"O=C1CCC(c2ccc(N3CCN(C4CCN(c5ccc([C@H]6c7ccc(O)cc7CC[C@H]6c6ccccc6)cc5)CC4)CC3)cc2)C(=O)N1 (single isomer, unassigned) [Compound I-41]",370

# Second part, the compound after the results:
row,DC50 [nM],SMILES
1,≥ 10000,"Cc1cc(F)cc([C@@H]2OCc3cc(O)ccc3[C@@H]2c2ccc(N3CCC(CN4CCN(c5ccc6c(c5)CN([C@H]5CCC(=O)NC5=O)C6=O)CC4)CC3)cc2)c1 [Compound I-378, (S)-3-(5-(4-((1-(4-((3R,4S)-3-(3-fluoro-5-methylphenyl)-7-hydroxyisochroman-4-yl)phenyl)piperidin-4-yl)methyl)piperazin-1-yl)-1-oxoisoindolin-2-yl)piperidine-2,6-dione]"
2,5,"O=C1CC[C@H](N2Cc3cc(N4CCN(C[C@H]5CCCN(c6ccc([C@@H]7c8ccc(O)cc8CC[C@@H]7c7ccccc7)cc6)C5)CC4)ccc3C2=O)C(=O)N1 (single isomer, unassigned) [II-22]"
3,≥ 10000,"O=C1CC[C@H](N2Cc3cc(N4CCC(CN5CCC(n6cc([C@@H]7c8ccc(O)cc8CC[C@@H]7c7ccccc7)cn6)CC5)CC4)ccc3C2=O)C(=O)N1 (single isomer, unassigned) [Compound I-409]"
4,0.16,"O=C1CC[C@H](N2Cc3cc(N4CCN(CC5CCN(c6ccc([C@H]7c8ccc(O)cc8CO[C@@H]7c7ccc(O)cc7)cc6)CC5)CC4)ccc3C2=O)C(=O)N1 (single isomer, unassigned) [Compound I-359, (S)-3-(5-(4-((1-(4-((3R*,4R*)-7-hydroxy-3-(4-hydroxyphenyl)isochroman-4-yl)phenyl)piperidin-4-yl)methyl)piperazin-1-yl)-1-oxoisoindolin-2-yl)piperidine-2,6-dione]"
5,3300,"Cc1cc(F)c([C@@H]2OCc3cc(O)ccc3[C@@H]2c2ccc(N3CCC(CN4CCN(c5ccc6c(c5)CN([C@H]5CCC(=O)NC5=O)C6=O)CC4)CC3)cc2)cc1F [Compound I-370, (S)-3-(5-(4-((1-(4-((3R,4S)-3-(2,5-difluoro-4-methylphenyl)-7-hydroxyisochroman-4-yl)phenyl)piperidin-4-yl)methyl)piperazin-1-yl)-1-oxoisoindolin-2-yl)piperidine-2,6-dione]"
6,20,"O=C1CCC(N2Cc3cc([C@@H]4CCN(CC5CCN(c6ccc([C@@H]7c8ccc(O)cc8CC[C@@H]7c7ccccc7)cc6)CC5)CC4(F)F)ccc3C2=O)C(=O)N1 (single isomer, unassigned) [II-91]"
7,0.61,O=C1CC[C@H](N2Cc3cc(N4CCN(CC5CCN(c6ccc([C@@H]7c8ccc(O)cc8CC[C@@H]7c7ccccc7)c(F)c6)CC5)CC4)ccc3C2=O)C(=O)N1 [II-86]
8,0.82,"O=C1CC[C@H](N2Cc3cc(N4CCN(CC5CCN(c6ccc([C@H]7c8ccc(O)cc8CC[C@H]7c7cccc(F)c7)cc6)CC5)CC4)ccc3C2=O)C(=O)N1 (single isomer, unassigned) [II-27]"
